According to publication PMC7772889, “Integrating biokinetics and in vitro studies to evaluate developmental neurotoxicity induced by chlorpyrifos in human iPSC-derived neural stem cells undergoing differentiation towards neuronal and glial cells” (Reproductive Toxicology (Elmsford, N.y.), 2020):

How the values were obtained:
[1] = system: hiPSC-derived NSCs undergoing differentiation towards neurons and astrocytes; experiment: In vitro biokinetics of CPF and metabolites in medium, cells and plastic (HPLC-UV)
Experimental: The nominal concentration causing 5 % decrease of viability (IC5) was previously identified, extrapolating a dose response curves obtained with six CPF nominal concentrations (0.49, 1.95, 7.81, 31.25, 125, and 500 μM) vs solvent control (0.1 % DMSO) after 14-day treatment by means of resazurin test (CellTiter-Blue® Reagent).
CPF stock solutions were prepared in DMSO and stored in glass at −20 °C until the beginning of each experiment. Freshly prepared treatment solutions were obtained after the dilution of stock solutions in a ratio of […] in serum-free culture medium, keeping DMSO concentration at 0.1 %. Aliquots of the stock and daily treatment solutions (considered as the starting solutions) were stored at −80 °C until HPLC analysis.
Cells (about 21,000 cells/cm^2), seeded on 6 well PDL- and reduced growth factor Matrigel coated plates, were treated during the differentiation process, starting from day 7 of differentiation up to day 21, with treatment/medium refreshed twice a week (Fig. 2). Exposure to CPF of cells or pre-coated wells (without cells) was initiated by adding 2 mL per well of the corresponding treatment solutions or the vehicle (control wells). Four biological replicates were carried out.
A first set of experiments was used to fine tune the experimental conditions, including time points and exposure conditions, taking into account possible metabolism, bioaccumulation and/or physical sequestration processes. All the fractions (i.e., medium, cells, plastic and matrix-bound fractions) were collected, at the first and last day of treatment, at different time points (i.e., 1, 3, 6, 24 h) selected on the basis of the intrinsic features of the compound and the cellular model. At each time point, the medium was transferred into amber glass vials and stored at −80 °C until HPLC analysis. Cells were washed twice with PBS (2 mL/well); to avoid dehydration of the cells, an aliquot of PBS was kept in each well. PBS was then removed, cells were scraped from the wells in 250 μL MeOH, additional 100 μL MeOH were added for washing and all the content was transferred into amber glass vials. The same procedure was applied also to the wells used for measuring matrix-bound material (without cells). Cells were then sonicated until they were fully homogenized (about 15 min). All fractions, including DMSO from control wells and MeOH used to measure possible plastic binding, were stored at −80 °C until HPLC analysis. Four biological replicates were carried out.
All samples from kinetic experiments were analysed using high-performance liquid chromatography (HPLC), as previously described, to quantify CPF and its metabolites. Prior to analysis, one volume of the collected medium samples was mixed with three volumes of MeOH. All the mixtures, including cell and matrix-bound samples, were vortexed for 30 s and then centrifuged (Eppendorf 5417R; 4 °C, 2500 rpm) for 10 min. Preliminary assays were conducted to evaluate CPF and its metabolite recovery after the solvent extraction procedure from each type of sample. […] Plastic-bound fraction was injected as such.
The HPLC system included a PerkinElmer Series 200 analytical pump, a Restek™ Pinnacle ODS Amine C18 column, a PerkinElmer LC 235 Diode Array Detector and the PerkinElmer Totalchrom™ 3.1.2 software for data acquisition and evaluation. For analysing CPF, CPFO and TCP, a gradient elution was applied at a flow rate of 1.0 mL/min, starting at 80:20 % methanol /buffer (Tris /HCl 50 mM EDTA 1 mM pH 7.4) and reaching after 4 min a percentage of 70:30 (v/v), respectively, maintained for 16 min. Then, the gradient returned to the initial concentration before the next sample was injected.

[2] = system: hiPSC-derived NSCs undergoing differentiation; experiment: Neurite outgrowth by immunocytochemistry and high content imaging (β-III-tubulin); format: cell-based, human; settings: 14 days
Experimental: After 14 days of treatment with CPF at the nominal concentrations of 18.45, 21.21, 24.39, 28.05, 32.26, and 37.10 μM (37.10 μM equal to IC20), obtained considering a 1-to-1.15 dilution factor, cells were fixed with 4 % formaldehyde for 10 min and washed three times in PBS 1 × . After 15 min permeabilization with PBS 1X containing 0.1 % Triton-X-100 and 3,5 % bovine serum albumin (BSA), cells were further incubated with 3,5 % BSA and 1X PBS (blocking solution) for 15 min, to prevent nonspecific binding of antibodies, and then incubated at 4 °C overnight with primary antibodies in blocking solution. For synaptogenesis analysis, cells were stained with microtubule-associated protein-2 (MAP2, chicken, 1:3000, Abcam), synaptophysin (pre-synaptic marker) (SYP, rabbit, 1:300, Abcam), and post-synaptic density protein 95 (PSD95, mouse, 1:300, Abcam) specific antibodies. Neurite outgrowth and BDNF protein levels were assessed by staining the cells with an antibody specific for β-III-tubulin (mouse, 1:500, ThermoFisher), and one for BDNF (rabbit, 1:70, ThermoFisher). Cells were also stained for glial fibrillary acidic protein (GFAP, chicken, 1:500, Abcam). The following day, cells were washed three times with PBS 1X and incubated for 1 h at room temperature in the dark with DyLight-conjugated secondary antibodies (1:500, Abcam) and nuclei counterstained with 1 μg/mL DAPI (ThermoFisher). Mean fluorescence intensity and the relative percentages of immunocytochemically-defined cell types were quantified using the ArrayScan™ XTI High Content Platform (Cellomics) (ThermoFisher) and the ArrayScan algorithm 'Neuronal Profiling V4.1', as previously described. This algorithm applies a specific nucleus mask around the DAPI stained nucleus, distinguishing between live and pyknotic/dead cells, a cell body mask around the cell type antibody/antigen staining (i.e., MAP2, β-III-tubulin, or GFAP). Other masks were applied to identify the neurites, their branch points, and the fluorescence intensity levels of SYP and PSD95 puncta, or BDNF protein. […]

[3] = system: hiPSC-derived NSCs undergoing differentiation; design: method as in PMID 32093744; settings: 14-day treatment; cited from earlier work
neuron-only cultures = settings: cited from earlier work

Which results are given for `CCOP(=S)(OCC)Oc1nc(Cl)c(Cl)cc1Cl` [CPF, Chlorpyrifos]?
Intracellular levels of CPF ([1]; first day of treatment, 1 h until 24 h, 21 μM nominal): 2.5–4.7 nmol/well; CPF in the medium as % of the initial CPF amount ([1]; first day of treatment, 24 h): around 41%; CPF in the medium ([1]; first day of treatment, 24 h, 21 μM nominal): 18.0 ± 6.9 nmol/well; Mass balance (% of the applied CPF amount) ([1]; first day of treatment, first three time points (1, 3 and 6 h)): around 95%; Actual concentration in the medium at the beginning of the experiment (treatment solution) ([1]; nominal concentration 21 μM (IC5)): 24.5 ± 5.6 µM; Amount of CPF in the cell compartment, last day compared to first day of treatment ([1]; p < 0.01): doubled; Mass balance ([1]; repeated exposure, within the first 6 h): 110 to 120%; length of neurites ([2]; concentrations ≤ IC20): not significantly affected; number of branch points/neurite (neurite complexity) ([2]; concentrations ≤ IC20): lower number of branch points/neurite; number of neurites/neuron ([2]; concentrations ≤ IC20 (18.45-37.10 μM)): concentration dependent decrease; in vitro nominal LOAEC for synaptogenesis [3]: 21 µM; concentration from which inhibition of neurite length, neurite number and branch points was observed (neuron-only cultures): 10 µM
